Test results published in patent publication US5496823A, “Pharmaceutical composition for increasing bladder capacity” (Hoechst Japan Limited, priority 1991, dated 1996).

How the values were obtained:
[1] = test system: urination-reflexing constriction of the bladder; assay: urination-reflexing constriction of the bladder (cystometrogram) in anesthetized rats, intravenous administration; type: in vivo, SD male rats; settings: for Bladder capacity, First / Bladder capacity, Second / Urination constriction pressure, First / Urination constriction pressure, Second / Urination threshold pressure, First / Urination threshold pressure, Second: relative level, pre-drug value = 1, mean ± SD
From the text: (§1) Effects of test drugs on urination-reflexing constriction of the bladder in anesthetized rats were examined according to Morikawa, et al. [in Oyo Yakuri/Pharmacometrics, Vol. 37, No. 1, pages 27-37, (1989)]. In the following examples, the bladder capacity designates the time from a urination to the next urination (urination interval), urination threshold pressure designates intracystic pressure) immediately prior to initiation of urination constriction and urination constriction pressure designates maximum internal pressure on urination constriction. Figures in the below table indicate relative level from the first and second reactions after administration of a drug taking the measured value before administration of the drug as 1 for bladder capacity (min.), urination threshold pressure (mmHg) and urination constriction pressure (mmHg), respectively.
(§2) Groups of 4-6 SD male rats were used and each animal was subjected to laparotomy under anesthesia with urethan, ligature around the ureter and then exposure of the bladder, on the top of which was perforated with a small opening, through which a cannula with a three-way step cock was inserted.
(§3) One of the three-way stop cock was connected to a syringe for continuously introducing a physiological saline solution and another to a pressure transducer for the measurement of intrasystic pressure.
(§4) A physiological saline solution was introduced into the bladder at a rate of 55 μl per min., and changes in intracystic pressure were recorded until urination. From the intracystic pressure curve were determined bladder capacity, urination threshold pressure and urination constriction pressure to examine the action of the introduction of physiological saline solution.
The drug was given via a polyethylene tube inserted into the femoral vein. […]

[2] = Japanese Patent Publication No. 33120/1977; cited from earlier work
[3] = test system: urination-reflexing constriction of the bladder; assay: urination-reflexing constriction of the bladder (cystometrogram) in anesthetized rats, intraduodenal administration; type: in vivo, SD male rats; settings: relative level, pre-drug value = 1, mean ± SD
From the text: as §1, §2, §3, §4
Groups of 4-5 SD male rats were fasted overnight and subjected to the same experimental procedures as in Example 1. The drug was given via a polyethylene tube inserted into the duodenum.

CCOCn1cnc2c1c(=O)n(CCCCC(C)(C)O)c(=O)n2C [Compound VI, 3,7-dihydro-3-methyl-1-(5-hydroxy-5-methylhexyl)-7-ethoxymethyl-1H-purine-2,6-dione]
Bladder capacity, First ([1]; Table 3, 20 mg/kg i.v., n=5): 1.8 ± 0.9
Bladder capacity, Second ([1]; Table 3, 20 mg/kg i.v., n=5): 1.4 ± 1.0
Urination constriction pressure, First ([1]; Table 3, 20 mg/kg i.v., n=5): 1.0 ± 0.1
Urination constriction pressure, Second ([1]; Table 3, 20 mg/kg i.v., n=5): 1.0 ± 0.1
Urination threshold pressure, First ([1]; Table 3, 20 mg/kg i.v., n=5): 1.3 ± 0.9
Urination threshold pressure, Second ([1]; Table 3, 20 mg/kg i.v., n=5): 1.0 ± 0.4

CCCn1cnc2c1c(=O)n(CCCCC(C)=O)c(=O)n2C [propentofylline, 3,7-dihydro-3-methyl-1-(5-oxohexyl)-7-propyl-1H-purine-2,6-dione]
action on vertebral artery (in words) [2]: specifically active on vertebral artery
blood flow during cerebral circulation (in words) [2]: increase blood flow highly selectively during cerebral circulation
Bladder capacity, First ([1]; 0.2 mg/kg i.v., n=5): 1.2 ± 0.8
Bladder capacity, Second ([1]; 0.2 mg/kg i.v., n=5): 1.1 ± 0.4
Urination constriction pressure, First ([1]; 0.2 mg/kg i.v., n=5): 1.0 ± 0.1
Urination constriction pressure, Second ([1]; 0.2 mg/kg i.v., n=5): 0.9 ± 0.1
Urination threshold pressure, First ([1]; 0.2 mg/kg i.v., n=5): 1.2 ± 0.5
Urination threshold pressure, Second ([1]; 0.2 mg/kg i.v., n=5): 1.0 ± 0.3
Bladder capacity, First ([1]; 1 mg/kg i.v., n=5): 2.5 ± 1.9
Bladder capacity, Second ([1]; 1 mg/kg i.v., n=5): 0.7 ± 0.2
Urination constriction pressure, First ([1]; 1 mg/kg i.v., n=5): 1.0 ± 0.1
Urination constriction pressure, Second ([1]; 1 mg/kg i.v., n=5): 1.1 ± 0.2
Urination threshold pressure, First ([1]; 1 mg/kg i.v., n=5): 1.1 ± 0.1
Urination threshold pressure, Second ([1]; 1 mg/kg i.v., n=5): 1.1 ± 0.2
Bladder capacity, Second ([1]; 5 mg/kg i.v., n=6): 1.0 ± 0.5
Urination constriction pressure, First ([1]; 5 mg/kg i.v., n=6): 1.0 ± 0.1
Urination constriction pressure, Second ([1]; 5 mg/kg i.v., n=6): 1.0 ± 0.2
Urination threshold pressure, First ([1]; 5 mg/kg i.v., n=6): 1.5 ± 0.4
Urination threshold pressure, Second ([1]; 5 mg/kg i.v., n=6): 1.2 ± 0.6
Bladder capacity, First ([1]; 5 mg/kg i.v., n=6, P < 0.05): 4.1 ± 2.6
Bladder capacity, Second ([1]; 10 mg/kg i.v., n=5): 0.9 ± 0.5
Urination constriction pressure, First ([1]; 10 mg/kg i.v., n=5): 1.0 ± 0.2
Urination constriction pressure, Second ([1]; 10 mg/kg i.v., n=5): 1.0 ± 0.2
Urination threshold pressure, Second ([1]; 10 mg/kg i.v., n=5): 1.1 ± 0.3
Urination threshold pressure, First ([1]; 10 mg/kg i.v., n=5, P < 0.01): 2.1 ± 0.7
Bladder capacity, First ([1]; 10 mg/kg i.v., n=5, P < 0.05): 3.5 ± 1.1
Bladder capacity, Second ([1]; 20 mg/kg i.v., n=5): 1.0 ± 0.8
Urination constriction pressure, First ([1]; 20 mg/kg i.v., n=5): 1.0 ± 0.1
Urination constriction pressure, Second ([1]; 20 mg/kg i.v., n=5): 1.0 ± 0.1
Urination threshold pressure, Second ([1]; 20 mg/kg i.v., n=5): 1.5 ± 0.8
Urination threshold pressure, First ([1]; 20 mg/kg i.v., n=5, P < 0.01): 2.5 ± 0.8
Bladder capacity, First ([1]; 20 mg/kg i.v., n=5, P < 0.05): 4.9 ± 3.2
constrictive force of the bladder (in words) ([1]; animal experiments, summary): almost no influence upon constrictive force of the bladder
substantial bladder capacity / volume (in words) ([1]; animal experiments, summary): increased substantial bladder capacity
urination intervals (in words) ([1]; animal experiments, summary): prolonged urination intervals
urination threshold pressure (in words) ([1]; animal experiments, summary): increased urination threshold pressure
Bladder capacity, First ([3]; 3 mg/kg intraduodenal, n=4): 1.1 ± 0.2
Bladder capacity, Second ([3]; 3 mg/kg intraduodenal, n=4): 1.1 ± 0.3
Urination constriction pressure, First ([3]; 3 mg/kg intraduodenal, n=4): 1.1 ± 0.1
Urination constriction pressure, Second ([3]; 3 mg/kg intraduodenal, n=4): 1.1 ± 0.2
Urination threshold pressure, First ([3]; 3 mg/kg intraduodenal, n=4): 1.0 ± 0.2
Urination threshold pressure, Second ([3]; 3 mg/kg intraduodenal, n=4): 1.0 ± 0.2
Bladder capacity, First ([3]; 10 mg/kg intraduodenal, n=4): 2.7 ± 1.8
Bladder capacity, Second ([3]; 10 mg/kg intraduodenal, n=4): 1.0 ± 1.0
Urination constriction pressure, First ([3]; 10 mg/kg intraduodenal, n=4): 1.0 ± 0.1
Urination constriction pressure, Second ([3]; 10 mg/kg intraduodenal, n=4): 0.9 ± 0.1
Urination threshold pressure, First ([3]; 10 mg/kg intraduodenal, n=4): 1.3 ± 0.3
Urination threshold pressure, Second ([3]; 10 mg/kg intraduodenal, n=4): 1.3 ± 0.5
Bladder capacity, First ([3]; 30 mg/kg intraduodenal, n=5): 2.7 ± 1.6
Bladder capacity, Second ([3]; 30 mg/kg intraduodenal, n=5): 0.8 ± 0.6
Urination constriction pressure, First ([3]; 30 mg/kg intraduodenal, n=5): 0.9 ± 0.1
Urination constriction pressure, Second ([3]; 30 mg/kg intraduodenal, n=5): 1.0 ± 0.1
Urination threshold pressure, First ([3]; 30 mg/kg intraduodenal, n=5): 1.6 ± 0.9
Urination threshold pressure, Second ([3]; 30 mg/kg intraduodenal, n=5): 1.4 ± 0.9
Bladder capacity, Second ([3]; 50 mg/kg intraduodenal, n=5): 0.6 ± 0.2
Urination constriction pressure, First ([3]; 50 mg/kg intraduodenal, n=5): 1.0 ± 0.1
Urination constriction pressure, Second ([3]; 50 mg/kg intraduodenal, n=5): 1.0
Urination threshold pressure, Second ([3]; 50 mg/kg intraduodenal, n=5): 1.4 ± 0.7
Bladder capacity, First ([3]; 50 mg/kg intraduodenal, n=5, P < 0.01): 4.3 ± 2.1
Urination threshold pressure, First ([3]; 50 mg/kg intraduodenal, n=5, P < 0.05): 1.7 ± 0.6
